Biological target: T1, NfsA (Escherichia coli, UniProt P17117)
T1 construct: untagged, dimer
T1 sequence (P17117 1-240): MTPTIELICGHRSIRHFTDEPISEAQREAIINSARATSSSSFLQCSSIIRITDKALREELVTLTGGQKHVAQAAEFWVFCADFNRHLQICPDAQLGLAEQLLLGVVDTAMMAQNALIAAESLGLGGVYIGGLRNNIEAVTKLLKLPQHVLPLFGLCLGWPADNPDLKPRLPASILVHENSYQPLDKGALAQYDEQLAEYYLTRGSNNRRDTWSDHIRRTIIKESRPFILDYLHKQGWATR
Assay: X-ray crystal structure at […] Å with a second FMN as ligand; steady-state inhibition kinetics
Format: biochemical

## Cc1cc2nc3c(=O)[nH]c(=O)nc-3n(C[C@H](O)[C@H](O)[C@H](O)COP(=O)(O)O)c2cc1C [FMN]
  Ki: ~8 µM

Source: article PMC8286842, “The structures of E. coli NfsA bound to the antibiotic nitrofurantoin; to 1,4-benzoquinone and to FMN” (Biochemical Journal, 2021)
